Among the data in the Kinase Knowledgebase extract (Sharma et al. 2016) are IC50 values, retold here.

Structures are written as SMILES. pIC50: −log10 of the molar value.

Experiment [1] has as its target PIK3CA (human) (UniProt P42336). Briefly: Enzyme Assay.
Experiment [2] has as its target PIK3CG (human) (UniProt P48736). Description: Inhibition of PIK3CG Kinase Activity.

Sequence of PIK3CG (human) (P48736 whole entry, looked up): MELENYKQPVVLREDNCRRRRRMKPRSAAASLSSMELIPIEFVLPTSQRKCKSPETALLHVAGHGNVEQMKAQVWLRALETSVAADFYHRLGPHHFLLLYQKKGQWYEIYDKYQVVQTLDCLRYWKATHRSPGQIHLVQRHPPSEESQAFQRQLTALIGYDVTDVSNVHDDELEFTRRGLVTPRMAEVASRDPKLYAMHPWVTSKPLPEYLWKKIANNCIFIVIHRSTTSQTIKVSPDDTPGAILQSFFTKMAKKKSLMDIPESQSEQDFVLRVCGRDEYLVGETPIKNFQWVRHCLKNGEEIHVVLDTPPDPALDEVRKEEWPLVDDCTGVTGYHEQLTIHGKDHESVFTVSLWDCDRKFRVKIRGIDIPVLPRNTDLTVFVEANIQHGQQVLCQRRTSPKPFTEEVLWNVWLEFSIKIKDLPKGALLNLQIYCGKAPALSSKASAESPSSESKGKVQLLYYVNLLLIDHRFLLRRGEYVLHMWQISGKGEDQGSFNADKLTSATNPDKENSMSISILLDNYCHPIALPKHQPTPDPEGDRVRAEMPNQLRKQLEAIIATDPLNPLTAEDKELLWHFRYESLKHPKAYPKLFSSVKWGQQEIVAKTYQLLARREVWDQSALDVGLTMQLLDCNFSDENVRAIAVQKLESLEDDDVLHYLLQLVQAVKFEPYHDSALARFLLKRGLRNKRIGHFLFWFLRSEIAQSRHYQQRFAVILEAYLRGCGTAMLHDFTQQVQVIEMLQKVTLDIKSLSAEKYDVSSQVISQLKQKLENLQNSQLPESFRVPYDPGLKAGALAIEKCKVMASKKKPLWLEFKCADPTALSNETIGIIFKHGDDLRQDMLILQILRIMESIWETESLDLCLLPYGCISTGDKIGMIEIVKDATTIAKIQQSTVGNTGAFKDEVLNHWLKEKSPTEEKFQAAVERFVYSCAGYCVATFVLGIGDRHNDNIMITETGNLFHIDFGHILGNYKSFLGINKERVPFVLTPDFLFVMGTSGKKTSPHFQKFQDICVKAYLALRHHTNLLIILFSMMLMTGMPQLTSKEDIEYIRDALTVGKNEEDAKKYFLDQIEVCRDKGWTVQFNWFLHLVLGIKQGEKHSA
Sequence of PIK3CA (human) (P42336 whole entry, looked up): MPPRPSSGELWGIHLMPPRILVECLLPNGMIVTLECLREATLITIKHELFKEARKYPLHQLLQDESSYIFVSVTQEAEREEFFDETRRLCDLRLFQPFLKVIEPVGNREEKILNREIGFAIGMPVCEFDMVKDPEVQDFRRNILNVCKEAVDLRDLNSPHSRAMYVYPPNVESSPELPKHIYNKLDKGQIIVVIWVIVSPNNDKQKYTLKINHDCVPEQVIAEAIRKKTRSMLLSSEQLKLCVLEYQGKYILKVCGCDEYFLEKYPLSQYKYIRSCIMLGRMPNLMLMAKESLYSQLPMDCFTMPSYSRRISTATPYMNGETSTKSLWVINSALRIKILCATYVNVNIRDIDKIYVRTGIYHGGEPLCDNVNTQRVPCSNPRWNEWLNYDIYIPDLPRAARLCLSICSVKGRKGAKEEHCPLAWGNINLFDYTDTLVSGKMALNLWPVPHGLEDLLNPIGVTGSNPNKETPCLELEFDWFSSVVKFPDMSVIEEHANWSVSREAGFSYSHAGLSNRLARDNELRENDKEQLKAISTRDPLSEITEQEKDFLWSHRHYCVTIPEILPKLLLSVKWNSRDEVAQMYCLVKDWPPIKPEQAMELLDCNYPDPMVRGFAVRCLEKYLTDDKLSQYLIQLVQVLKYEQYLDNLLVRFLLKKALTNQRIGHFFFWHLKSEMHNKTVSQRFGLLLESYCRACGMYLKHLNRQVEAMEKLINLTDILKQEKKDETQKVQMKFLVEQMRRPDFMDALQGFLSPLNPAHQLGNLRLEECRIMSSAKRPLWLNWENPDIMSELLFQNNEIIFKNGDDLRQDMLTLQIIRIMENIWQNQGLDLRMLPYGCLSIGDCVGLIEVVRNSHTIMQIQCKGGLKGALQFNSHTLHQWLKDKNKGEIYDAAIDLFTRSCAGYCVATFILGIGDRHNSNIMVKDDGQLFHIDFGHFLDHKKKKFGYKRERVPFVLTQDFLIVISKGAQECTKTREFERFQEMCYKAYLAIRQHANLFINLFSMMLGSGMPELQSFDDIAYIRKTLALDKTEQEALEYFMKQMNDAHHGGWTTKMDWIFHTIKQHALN

One may read the pIC50 as the negative decadic logarithm of the IC50, by convention in mol/L. With `Cn1c(-c2ccc(-c3ccc(CN)cc3)cc2)c(/C=C2\Oc3cc(O)cc(O)c3C2=O)c2ccccc21`, the pIC50 in experiment [1] was 5.54; in experiment [2], 5.02. Consider `COc1ccc(-c2cccc3c2c(/C=C2\Oc4cc(O)cc(O)c4C2=O)cn3C)cn1`, for which the pIC50 in experiment [2] was 5.30. For `CN(c1ccccc1)c1cccc2c1c(/C=C1\Oc3cc(O)cc(O)c3C1=O)cn2C`, the pIC50 in experiment [2] was 5.30. `COc1ccc2[nH]c(CCn3ccnc3)c(/C=C3\Oc4cc(O)cc(O)c4C3=O)c2c1`: the pIC50 is 8.02 in experiment [1] and 7.09 in experiment [2].

`O=C1C(=Cc2c(-c3ccccc3)n(Cc3ccncc3)c3ccccc23)Oc2cc(O)cc(O)c21`: in experiment [2], the pIC50 is 4.96. Still for that read-out and setting: for `O=C1C(=Cc2c(Br)[nH]c3ccccc23)Oc2c1ccc(O)c2O` the value was 5.30. With `Cn1cc(/C=C2\Oc3cc(O)cc(O)c3C2=O)c2c(Br)cccc21`, the results for the pIC50 in experiment [1] and in experiment [2] were 5.48 and 5.71, respectively. For the compound `COc1ccc2c(c1)c(C=C1Oc3cccc(O)c3C1=O)c(C)n2CCN1CCN(C)CC1`, the pIC50 in experiment [1] is 6.31; in experiment [2], 5.35. In the case of `CCc1cc(O)cc2c1C(=O)/C(=C/c1c[nH]c3ccc(OC)cc13)O2`, the pIC50 in experiment [1] was 6.88. `COC(=O)Nc1ccc2c(c1)C(=O)/C(=C/c1cn(CCN3CCN(C)CC3)c3ccc(OC)cc13)O2`: the pIC50 in experiment [1] was 6.20; in experiment [2], 5.13.

For `COc1ccc2c(c1)c(C=C1Oc3c(ccc(O)c3O)C1=O)c(C)n2CCCCN1CCN(CCO)CC1`, the pIC50 was 6.69 in experiment [1] and 5.50 in experiment [2].

As to `O=C1/C(=C/c2c[nH]c3ccc(Cl)cc23)Oc2c1ccc(O)c2O`, in experiment [2], the pIC50 was 5.30. Turning to `Cn1cc(C=C2Oc3cc(O)cc(O)c3C2=O)c2c(Cl)cccc21`, in experiment [2], the pIC50 is 5.00. Against the preceding compound, the pIC50 is 0.30 log units lower. With `COc1ccc2c(c1)c(C=C1Oc3cccc(O)c3C1=O)c(C)n2CCN1CCN(CCO)CC1`, the values for the pIC50 in experiment [1] and in experiment [2] were 6.32 and 5.40, respectively. As to `Cc1ccc2c(c1)C(=O)/C(=C/c1c(-c3ccc4ccccc4c3)[nH]c3ccccc13)S2`, the pIC50 in experiment [1] was 4.92. Turning to `COc1ccc2c(c1)c(C=C1Oc3cccc(O)c3C1=O)c(C)n2CCN1CCOCC1`, the pIC50 is 6.19 in experiment [1] and 5.38 in experiment [2].

In the case of `COc1ccc2[nH]cc(/C=C3\Oc4c(OC)cccc4C3=O)c2c1`, the pIC50 in experiment [1] is 5.01. In the case of `COc1ccc2c(c1)c(C=C1Oc3c(ccc(O)c3O)C1=O)c(C)n2CCCCN1CCN(C)CC1`, the results for the pIC50 in experiment [1] and in experiment [2] were 6.47 and 5.38, respectively.

Compound `O=C1C(=Cc2c(-c3ccccc3)n(Cc3cccnc3)c3ccccc23)Oc2cc(O)cc(O)c21` gave a pIC50 in experiment [2] of 4.96. Turning to `Cc1ccc2c(c1)C(=O)/C(=C/c1c(C)[nH]c3ccc([N+](=O)[O-])cc13)S2`, the pIC50 in experiment [1] was 5.04. Still for that read-out and setting: for `COc1ccc2[nH]cc(/C=C3\Oc4cc(O)cc(-c5ccccc5)c4C3=O)c2c1` the value was 6.91. Consider `CN(C)Cc1ccc(-c2ccc(-c3c(/C=C4\Oc5cc(O)cc(O)c5C4=O)c4ccccc4n3C)cc2)cc1`, for which the pIC50 in experiment [1] is 5.91; in experiment [2], 5.64. `COc1ccc2c(c1)c(/C=C1\Oc3c(ccc(O)c3C)C1=O)c(C)n2CCCN(C)C`: in experiment [2], the pIC50 was 5.30. On the same count and under the same terms, the result for `COc1ccc2c(c1)c(/C=C1\Oc3ccc(Br)cc3C1=O)cn2CCCN(C)C` reads 5.30; that for `COc1ccc2[nH]cc(/C=C3\Oc4cc(S(=O)(=O)OC(F)(F)F)ccc4C3=O)c2c1`, 5.03; that for `COc1cc(-c2ccncc2)c2c(c1)c(/C=C1\Oc3cc(O)ccc3C1=O)cn2CCCC#N`, 5.30. Turning to `CNC(=O)Nc1ccc2c(c1)O/C(=C\c1cn(CCCN(C)C)c3ccc(OC)cc13)C2=O`, the pIC50 in experiment [1] was 5.00.

As to `COc1ccc2c(c1)c(C=C1Oc3c(ccc(O)c3O)C1=O)c(C)n2CCCCN1CCOCC1`, the pIC50 was 6.64 in experiment [1] and 6.02 in experiment [2]. Consider `O=C1C(=Cc2c(-c3ccccc3)n(CCN3CCCCC3)c3ccccc23)Oc2cc(O)cc(O)c21`, for which the pIC50 was 5.64 in experiment [1] and 5.31 in experiment [2]. In turn, `CCc1cc(OC)cc2c(/C=C3\Oc4cc(O)cc(O)c4C3=O)cn(CCCC#N)c12` showed a pIC50 in experiment [1] of 7.20.

In turn, `O=C1C(=Cc2c[nH]c3cc(Cl)ccc23)Oc2cc(O)cc(O)c21` showed a pIC50 in experiment [2] of 5.00.

Take `COc1cc(/C=C/CC2CCNCC2)c2[nH]cc(/C=C3\Oc4cc(O)ccc4C3=O)c2c1`: the results for the pIC50 in experiment [1] and in experiment [2] were 7.32 and 5.72, respectively. `Cn1cc(/C=C2/Oc3cc(O)cc(O)c3C2=O)c2c(-c3ccccc3)cccc21.Cn1cc(/C=C2\Oc3cc(O)cc(O)c3C2=O)c2c(-c3ccccc3)cccc21` gave a pIC50 in experiment [1] of 6.58.

In experiment [2], `Cc1cccc2c1c(/C=C1\Oc3cc(O)cc(O)c3C1=O)c(-c1ccccn1)n2C` gave a pIC50 of 4.96.

With `COc1ccc2[nH]cc(/C=C3\Oc4cc(O)cc(Br)c4C3=O)c2c1`, in experiment [1], the pIC50 is 6.92.
